Measured values as given in PubChem BioAssay AID274 (DTP/NCI, 2004).
Values joined by “and” are separate entries in the source; they are usually repeats but may differ in a detail not shown here. Equal entries are not always repeated. Inconclusive results and toxic doses are left out.

Test system: BDF1 mice, Lewis lung carcinoma iv, survival T/C
Experiment: NCI In Vivo Anticancer Drug Screen. Data for tumor model Lewis Lung Carcinoma (intravenous) in B6D2F1 (BDF1) mice
Details: endpoint: median survival time, higher = longer survival
Experimental: The antitumor activity of compounds was measured in mice bearing transplantable tumors. Survival or tumor size were measured and the results are expressed as the measurement made in the treated group (T) divided by the measurement made in the vehicle treated control group (C). The tumor model used in this assay is Lewis Lung Carcinoma (intravenous) in B6D2F1 (BDF1) mice

[1] = dose: 7.5 mg/kg/injection, schedule: Q01DX009 (ip), vehicle: Klucel (hydroxypropylcellulose) (HPC)
[2] = dose: 15.0 mg/kg/injection, schedule: Q01DX009 (ip), vehicle: Klucel (hydroxypropylcellulose) (HPC)
[3] = dose: 30.0 mg/kg/injection, schedule: Q01DX009 (ip), vehicle: Klucel (hydroxypropylcellulose) (HPC)
[4] = dose: 6.25 mg/kg/injection, schedule: Q01DX009 (ip), vehicle: saline
[5] = dose: 12.5 mg/kg/injection, schedule: Q01DX009 (ip), vehicle: saline
[6] = dose: 25.0 mg/kg/injection, schedule: Q01DX009 (ip), vehicle: saline
[7] = dose: 25.0 mg/kg/injection, schedule: Q01DX009 (ip), vehicle: saline with Tween-80
[8] = dose: 50.0 mg/kg/injection, schedule: Q01DX009 (ip), vehicle: saline with Tween-80
[9] = dose: 50.0 mg/kg/injection, schedule: Q01DX009 (ip), vehicle: saline
[10] = dose: 25.0 mg/kg/injection, schedule: Q01DX009 (ip), vehicle: Klucel (hydroxypropylcellulose) (HPC)
[11] = dose: 50.0 mg/kg/injection, schedule: Q01DX009 (ip), vehicle: Klucel (hydroxypropylcellulose) (HPC)
[12] = dose: 100.0 mg/kg/injection, schedule: Q01DX009 (ip), vehicle: Klucel (hydroxypropylcellulose) (HPC)
[13] = dose: 0.25 mg/kg/injection, schedule: Q01DX009 (ip), vehicle: Klucel (hydroxypropylcellulose) (HPC)
[14] = dose: 1.0 mg/kg/injection, schedule: Q01DX009 (ip), vehicle: Klucel (hydroxypropylcellulose) (HPC)
[15] = dose: 2.0 mg/kg/injection, schedule: Q01DX009 (ip), vehicle: Klucel (hydroxypropylcellulose) (HPC)

`S=c1nc[nH]c2nc[nH]c12` was tested, and the T/C [1] was 97 % of control, the T/C (dose: 15.0 mg/kg/injection, schedule: Q01DX005 (ip), vehicle: Klucel (hydroxypropylcellulose) (HPC)) was 98 % of control and the T/C [2] was 113 % of control and 87 % of control. For the same molecule, the T/C (dose: 30.0 mg/kg/injection, schedule: Q01DX005 (ip), vehicle: Klucel (hydroxypropylcellulose) (HPC)) was 122 % of control, the T/C [3] was 92 % of control and 108 % of control and the T/C (dose: 60.0 mg/kg/injection, schedule: Q01DX005 (ip), vehicle: Klucel (hydroxypropylcellulose) (HPC)) was 93 % of control. For the same molecule, the T/C (dose: 120.0 mg/kg/injection, schedule: Q01DX005 (ip), vehicle: Klucel (hydroxypropylcellulose) (HPC)) was 103 % of control and the T/C (dose: 240.0 mg/kg/injection, schedule: Q01DX005 (ip), vehicle: Klucel (hydroxypropylcellulose) (HPC)) was 95 % of control.
With `COc1ccc2c(c1)/C(=C/CCN(C)C)c1ccccc1S2` the T/C [4] was 114 % of control, the T/C [5] was 98 % of control and 105 % of control and the T/C [6] was 106 % of control and 110 % of control.
With `CNc1cccnc1/C=N/NC(N)=S` the T/C (dose: 12.0 mg/kg/injection, schedule: Q01DX009 (ip), vehicle: saline with Tween-80) was 100 % of control, the T/C [7] was 103 % of control and the T/C [8] was 102 % of control. The T/C (dose: 100.0 mg/kg/injection, schedule: Q01DX009 (ip), vehicle: saline with Tween-80) was 115 % of control.
`CC(C)n1cnc2c(Cl)ncnc21` was tested, and the T/C [7] was 113 % of control and the T/C [8] was 95 % of control.
In the case of `CC(CN1CC(=O)NC(=O)C1)N1CC(=O)NC(=O)C1` (stereo not drawn), the T/C (dose: 64.8 mg/kg/injection, schedule: Q04DX003 (ip), vehicle: Klucel (hydroxypropylcellulose) (HPC)) is reported as 110 % of control and 112 % of control and 119 % of control, the T/C (dose: 108.0 mg/kg/injection, schedule: Q04DX003 (ip), vehicle: Klucel (hydroxypropylcellulose) (HPC)) is reported as 111 % of control and 114 % of control and the T/C (dose: 300.0 mg/kg/injection, schedule: Q04DX003 (ip), vehicle: Klucel (hydroxypropylcellulose) (HPC)) is reported as 154 % of control and 178 % of control.
With `Nc1nc2c(c(=O)[nH]1)NC(CCNc1ccc(C(=O)NC(CCC(=O)O)C(=O)O)cc1)CN2` (stereo not drawn) the T/C [6] was 111 % of control, the T/C [9] was 103 % of control and the T/C (dose: 100.0 mg/kg/injection, schedule: Q01DX009 (ip), vehicle: saline) was 117 % of control.
`O=C(Nc1ccc(Cl)c(Cl)c1)Nc1c(Oc2ccc(Cl)c(Cl)c2)ccc(Cl)c1S(=O)(=O)O` was tested, and the T/C (dose: 3.12 mg/kg/injection, schedule: Q01DX009 (ip), vehicle: Klucel (hydroxypropylcellulose) (HPC)) was 113 % of control, the T/C (dose: 6.25 mg/kg/injection, schedule: Q01DX009 (ip), vehicle: Klucel (hydroxypropylcellulose) (HPC)) was 104 % of control and the T/C [10] was 109 % of control. For the same molecule, the T/C [11] was 105 % of control and the T/C [12] was 100 % of control.
With `COc1cc(NCCCCCCCNC(C)C)c2nccc(C)c2c1` the T/C (dose: 3.12 mg/kg/injection, schedule: Q01DX009 (ip), vehicle: saline) was 94 % of control, the T/C [4] was 100 % of control and the T/C [5] was 98 % of control. For the same molecule, the T/C [6] was 108 % of control.
With `CC(C)CCCCCCCCCCCCC(=O)NCC(=O)NC1C(O)C(O)C(Nc2ncnc3nc[nH]c23)OC1C(O)CO` (stereo not drawn) the T/C [13] was 102 % of control, the T/C [14] was 90 % of control and the T/C [15] was 93 % of control.
In the case of `CC1CN1C(=O)NCCCCCCNC(=O)N1CC1C` (stereo not drawn), the T/C (dose: 2.5 mg/kg/injection, schedule: Q01DX009 (ip), vehicle: saline + alcohol) is reported as 111 % of control.
With `S=C(Nc1ccc(Cl)c(Cl)c1)N1c2ccccc2-n2cccc2C1c1cccnc1` (stereo not drawn) the T/C (dose: 12.5 mg/kg/injection, schedule: Q01DX009 (ip), vehicle: Klucel (hydroxypropylcellulose) (HPC)) was 93 % of control and 105 % of control, the T/C [10] was 99 % of control and 91 % of control and the T/C [11] was 98 % of control and 100 % of control. The T/C [12] was 94 % of control and 101 % of control, the T/C (dose: 200.0 mg/kg/injection, schedule: Q01DX009 (ip), vehicle: Klucel (hydroxypropylcellulose) (HPC)) was 105 % of control and 110 % of control and the T/C (dose: 400.0 mg/kg/injection, schedule: Q01DX009 (ip), vehicle: Klucel (hydroxypropylcellulose) (HPC)) was 115 % of control.
For `C[C@@]12C(=O)OC(=O)[C@]1(C)[C@H]1CC[C@@H]2O1`, the T/C (dose: 0.06 mg/kg/injection, schedule: Q01DX009 (ip), vehicle: Klucel (hydroxypropylcellulose) (HPC)) was 104 % of control, the T/C (dose: 0.12 mg/kg/injection, schedule: Q01DX009 (ip), vehicle: Klucel (hydroxypropylcellulose) (HPC)) was 108 % of control and the T/C [13] was 95 % of control. The T/C (dose: 0.5 mg/kg/injection, schedule: Q01DX009 (ip), vehicle: Klucel (hydroxypropylcellulose) (HPC)) was 108 % of control and the T/C [14] was 97 % of control.
In the case of `C[n+]1cccc(NC(=O)c2ccc(NC(=O)C34CCC(C(=O)Nc5ccc(C(=O)Nc6ccc[n+](C)c6)cc5)(CC3)CC4)cc2)c1`, the T/C (dose: 5.0 mg/kg/injection, schedule: Q01DX009 (ip), vehicle: saline with Tween-80) is reported as 93 % of control and the T/C (dose: 10.0 mg/kg/injection, schedule: Q01DX009 (ip), vehicle: saline with Tween-80) is reported as 99 % of control.
With `CC(=O)N(C)c1ccc(Nc2cc(C)[nH]c3ccc4ncnc4c23)cc1` the T/C [4] was 97 % of control, the T/C [5] was 93 % of control and the T/C [6] was 93 % of control. For the same molecule, the T/C [9] was 117 % of control.
For `CC[N](CC)[Ge]([CH2]C)[CH2]C.CC[N](CC)[Ge]([CH2]C)[CH2]C`, the T/C (dose: 3.12 mg/kg/injection, schedule: Q01DX009 (ip), vehicle: suspension in saline) was 113 % of control, the T/C (dose: 6.25 mg/kg/injection, schedule: Q01DX009 (ip), vehicle: suspension in saline) was 95 % of control and the T/C (dose: 12.5 mg/kg/injection, schedule: Q01DX009 (ip), vehicle: suspension in saline) was 96 % of control. The T/C (dose: 25.0 mg/kg/injection, schedule: Q01DX009 (ip), vehicle: suspension in saline) was 106 % of control and the T/C (dose: 50.0 mg/kg/injection, schedule: Q01DX009 (ip), vehicle: suspension in saline) was 100 % of control.
`CC[PH+](CC)CC[S-].CC[PH+](CC)CC[S-].[Au+].[Au+]` was tested, and the T/C (dose: 2.5 mg/kg/injection, schedule: Q01DX009 (ip), vehicle: Klucel (hydroxypropylcellulose) (HPC)) was 115 % of control, the T/C (dose: 5.0 mg/kg/injection, schedule: Q01DX009 (ip), vehicle: Klucel (hydroxypropylcellulose) (HPC)) was 102 % of control and the T/C (dose: 10.0 mg/kg/injection, schedule: Q01DX009 (ip), vehicle: Klucel (hydroxypropylcellulose) (HPC)) was 109 % of control. For the same molecule, the T/C (dose: 20.0 mg/kg/injection, schedule: Q01DX009 (ip), vehicle: Klucel (hydroxypropylcellulose) (HPC)) was 114 % of control, the T/C (dose: 40.0 mg/kg/injection, schedule: Q01DX009 (ip), vehicle: Klucel (hydroxypropylcellulose) (HPC)) was 102 % of control and the T/C (dose: 80.0 mg/kg/injection, schedule: Q01DX009 (ip), vehicle: Klucel (hydroxypropylcellulose) (HPC)) was 109 % of control.
In the case of `C=C1C(=O)C2=CC1CCC(=O)C1(C)CCC(OC(C)=O)C(C)(C)C1CC2O` (stereo not drawn), the T/C (dose: 3.75 mg/kg/injection, schedule: Q01DX009 (ip), vehicle: Klucel (hydroxypropylcellulose) (HPC)) is reported as 105 % of control, the T/C [1] is reported as 100 % of control and the T/C [2] is reported as 100 % of control. For the same molecule, the T/C [3] was 104 % of control and the T/C (dose: 60.0 mg/kg/injection, schedule: Q01DX009 (ip), vehicle: Klucel (hydroxypropylcellulose) (HPC)) was 93 % of control.
For `CC1CCOS(=O)O1` (stereo not drawn), the T/C (dose: 10.0 mg/kg/injection, schedule: Q01DX009 (ip), vehicle: saline) was 100 % of control, the T/C (dose: 20.0 mg/kg/injection, schedule: Q01DX009 (ip), vehicle: saline) was 94 % of control and the T/C (dose: 40.0 mg/kg/injection, schedule: Q01DX009 (ip), vehicle: saline) was 95 % of control.
`O=NN(CCCl)C(=O)NC1CCCCC1` was tested, and the T/C [14] was 106 % of control, the T/C [15] was 108 % of control and the T/C (dose: 4.0 mg/kg/injection, schedule: Q01DX009 (ip), vehicle: Klucel (hydroxypropylcellulose) (HPC)) was 120 % of control. For the same molecule, the T/C (dose: 8.0 mg/kg/injection, schedule: Q01DX009 (ip), vehicle: Klucel (hydroxypropylcellulose) (HPC)) was 213 % of control, the T/C (dose: 16.0 mg/kg/injection, schedule: Q01DX009 (ip), vehicle: Klucel (hydroxypropylcellulose) (HPC)) was 118 % of control and the T/C (dose: 32.0 mg/kg/injection, schedule: Q01DX009 (ip), vehicle: Klucel (hydroxypropylcellulose) (HPC)) was 93 % of control.
